Experimental findings from PubChem BioAssay AID330 (DTP/NCI, 2004) are described below.

For the assay, the system named is P388 leukemia ip, CD2F1 mice, survival T/C. Description: NCI In Vivo Anticancer Drug Screen. Data for tumor model P388 Leukemia (intraperitoneal) in CD2F1 (CDF1) mice. The note with it: endpoint: median survival time, higher = longer survival. The method in brief:
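Mice carrying the transplanted tumor received test compound or vehicle. Survival was recorded in each group, and the value is the treated-group measurement divided by that of the vehicle-treated control group.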

The mark [1] stands for this setting: dose: 60.0 mg/kg/injection, schedule: Q01DX005 (ip), vehicle: saline with Tween-80.
[2] abbreviates: dose: 120.0 mg/kg/injection, schedule: Q01DX005 (ip), vehicle: saline with Tween-80.
Where [3] appears, read: dose: 240.0 mg/kg/injection, schedule: Q01DX005 (ip), vehicle: saline with Tween-80.
Setting [4] is: dose: 60.0 mg/kg/injection, schedule: Q01DX005 (ip), vehicle: Klucel (hydroxypropylcellulose) (HPC).
[5] abbreviates: dose: 120.0 mg/kg/injection, schedule: Q01DX005 (ip), vehicle: Klucel (hydroxypropylcellulose) (HPC).
[6] abbreviates: dose: 50.0 mg/kg/injection, schedule: Q01DX005 (ip), vehicle: Klucel (hydroxypropylcellulose) (HPC).
The mark [7] stands for this setting: dose: 100.0 mg/kg/injection, schedule: Q01DX005 (ip), vehicle: Klucel (hydroxypropylcellulose) (HPC).
Setting [8] is: dose: 200.0 mg/kg/injection, schedule: Q01DX005 (ip), vehicle: Klucel (hydroxypropylcellulose) (HPC).
Where [9] appears, read: dose: 12.5 mg/kg/injection, schedule: Q01DX005 (ip), vehicle: saline with Tween-80.
[10] abbreviates: dose: 50.0 mg/kg/injection, schedule: Q01DX005 (ip), vehicle: saline with Tween-80.
[11] abbreviates: dose: 100.0 mg/kg/injection, schedule: Q01DX005 (ip), vehicle: saline with Tween-80.
[12] abbreviates: dose: 200.0 mg/kg/injection, schedule: Q01DX005 (ip), vehicle: saline with Tween-80.
[13] abbreviates: dose: 25.0 mg/kg/injection, schedule: Q04DX002 (ip), vehicle: saline with Tween-80.
Where [14] appears, read: dose: 50.0 mg/kg/injection, schedule: Q04DX002 (ip), vehicle: saline with Tween-80.
The mark [15] stands for this setting: dose: 100.0 mg/kg/injection, schedule: Q04DX002 (ip), vehicle: saline with Tween-80.
The mark [16] stands for this setting: dose: 200.0 mg/kg/injection, schedule: Q04DX002 (ip), vehicle: saline with Tween-80.
Where [17] appears, read: dose: 50.0 mg/kg/injection, schedule: Q04DX003 (ip), vehicle: saline with Tween-80.
The mark [18] stands for this setting: dose: 100.0 mg/kg/injection, schedule: Q04DX003 (ip), vehicle: saline with Tween-80.
[19] abbreviates: dose: 200.0 mg/kg/injection, schedule: Q04DX003 (ip), vehicle: saline with Tween-80.

Molecules are shown by their SMILES. “And” between values parts separate entries of the source, which are not always exact repeats. Equal entries are not always repeated. Toxic doses and inconclusive results are not listed.

Turning to `CC[CH2][Sn]([Br])([Br])[CH2]CC`, the T/C runs as follows: (dose: 3.12 mg/kg/injection, schedule: Q04DX003 (ip), vehicle: saline) 114 % of control; (dose: 6.25 mg/kg/injection, schedule: Q04DX003 (ip), vehicle: saline) 109 % of control.

With `Nc1ccc(-c2ccc(C(=O)O)cc2)cc1`, the T/C runs as follows: under setting [1], 104 % of control; under setting [2], 106 % of control; under setting [3], 109 % of control.

With `CCN(CC)C(=O)CCc1ccc(Cl)cc1`, the T/C by setting is: under setting [4], 104 % of control; under setting [5], 95 % of control; (dose: 240.0 mg/kg/injection, schedule: Q01DX005 (ip), vehicle: Klucel (hydroxypropylcellulose) (HPC)) 102 % of control.

Regarding `N#Cc1ccc(NC(=O)Nc2ccc(Cc3ccc(NC(=O)Nc4ccc(C#N)cc4)cc3)cc2)cc1`, the T/C was 97 % of control (dose: 15.0 mg/kg/injection, schedule: Q01DX005 (ip), vehicle: Klucel (hydroxypropylcellulose) (HPC)); 90 % of control (dose: 30.0 mg/kg/injection, schedule: Q01DX005 (ip), vehicle: Klucel (hydroxypropylcellulose) (HPC)); 87 % of control under setting [4]; 94 % of control under setting [5].

For `COc1ccc(C2=C(c3ccccc3)C(=O)C3(c4ccccc4)CC23c2ccc(OC)cc2)cc1` (stereo not given), the T/C under setting [6] is 97 % of control, the T/C under setting [7] is 89 % of control and the T/C under setting [8] is 92 % of control.

In the case of `CC/C(=N/N(C)C)C(=O)OC(C)(C)C`, the T/C runs as follows: (dose: 60.0 mg/kg/injection, schedule: Q01DX005 (ip), vehicle: saline) 95 % of control; (dose: 120.0 mg/kg/injection, schedule: Q01DX005 (ip), vehicle: saline) 93 % of control; (dose: 240.0 mg/kg/injection, schedule: Q01DX005 (ip), vehicle: saline) 90 % of control.

For the molecule `c1ccc(OCc2cn[nH]n2)cc1`, the T/C under setting [1] is 100 % of control, the T/C under setting [2] is 103 % of control and the T/C under setting [3] is 100 % of control.

Turning to `CN1C(=O)n2c(nc3ccccc32)C(Cl)(Cl)C1=O`, the T/C was 104 % of control under setting [1] and 98 % of control under setting [2].

For `CN(C)CCNc1cccc2sc3ccc(O)cc3c(=O)c12`, the T/C is 113 % of control under setting [9]; 115 % of control and 123 % of control (dose: 25.0 mg/kg/injection, schedule: Q01DX005 (ip), vehicle: saline with Tween-80); 123 % of control and 124 % of control under setting [10].

On to `COc1cc(O)c2c(c1)C(O)C(O)CC1OC1C(=O)/C=C/CC(C)OC2=O` (stereo not given), for which the T/C (dose: 1.56 mg/kg/injection, schedule: Q01DX005 (ip), vehicle: saline with Tween-80) was 115 % of control; the T/C (dose: 3.12 mg/kg/injection, schedule: Q01DX005 (ip), vehicle: saline with Tween-80) is 107 % of control; the T/C (dose: 6.25 mg/kg/injection, schedule: Q01DX005 (ip), vehicle: saline with Tween-80) was 107 % of control; the T/C under setting [9] was 114 % of control.

As for `CC(C)C(NC(=O)OC(C)(C)C)C(=O)NC(CC(=O)OCc1ccccc1)C(=O)OCc1ccccc1` (stereo not given), the T/C by setting is: under setting [11], 88 % of control; under setting [12], 91 % of control; (dose: 400.0 mg/kg/injection, schedule: Q01DX005 (ip), vehicle: saline with Tween-80) 88 % of control.

`COc1cc(/C=C/c2ccc(OC)c(O)c2)cc(OC)c1`: the T/C runs as follows: (dose: 6.25 mg/kg/injection, schedule: Q01DX005 (ip), vehicle: Klucel (hydroxypropylcellulose) (HPC)) 108 % of control; (dose: 12.5 mg/kg/injection, schedule: Q01DX005 (ip), vehicle: Klucel (hydroxypropylcellulose) (HPC)) 103 % of control; (dose: 25.0 mg/kg/injection, schedule: Q01DX005 (ip), vehicle: Klucel (hydroxypropylcellulose) (HPC)) 99 % of control; under setting [6], 119 % of control and 94 % of control; under setting [7], 98 % of control; under setting [8], 94 % of control.

In the case of `Cc1c([C@H](C)[C@@H]2NC[C@@H](C)C[C@H]2O)ccc2c1C[C@H]1[C@H]2CC=C2C[C@@H](O)CC[C@@]21C`, the T/C reads like this: (dose: 0.75 mg/kg/injection, schedule: Q01DX009 (ip), vehicle: saline with Tween-80) 108 % of control; (dose: 1.5 mg/kg/injection, schedule: Q01DX009 (ip), vehicle: saline with Tween-80) 115 % of control; (dose: 3.0 mg/kg/injection, schedule: Q01DX009 (ip), vehicle: saline with Tween-80) 101 % of control and 113 % of control.

As for `O=C1CN(Cc2cccc(Cl)c2)CC(=O)N2Cc3ccccc3CN12`, the T/C runs as follows: under setting [10], 106 % of control; under setting [11], 98 % of control.

As for `CCOC(=O)c1c(N)c(=O)oc2c3c(c(O)cc12)OCO3`, the T/C is 94 % of control under setting [6] and 89 % of control under setting [7].

As for `CCNCC(=O)Nc1ccc2c(c1)C(=O)c1ccc(NC(=O)CNCC)cc1C2=O`, the T/C under setting [13] was 100 % of control; the T/C under setting [14] was 110 % of control; the T/C under setting [15] was 102 % of control; the T/C under setting [16] is 108 % of control and 93 % of control.

As for `O=C1CCC(=O)S1`, the T/C (dose: 12.5 mg/kg/injection, schedule: Q04DX002 (ip), vehicle: saline with Tween-80) is 100 % of control; the T/C under setting [13] was 91 % of control; the T/C under setting [14] was 91 % of control.

On to `NC(=O)C1CCCCC1C(N)=O` (stereo not given), for which the T/C (dose: 100.0 mg/kg/injection, schedule: Q01DX009 (ip), vehicle: saline with Tween-80) was 100 % of control; the T/C (dose: 200.0 mg/kg/injection, schedule: Q01DX009 (ip), vehicle: saline with Tween-80) was 104 % of control; the T/C (dose: 400.0 mg/kg/injection, schedule: Q01DX009 (ip), vehicle: saline with Tween-80) was 104 % of control.

For `COC(=O)CCN(CCC(=O)OC)Cc1ccccc1`, the T/C reads like this: under setting [17], 101 % of control; under setting [18], 100 % of control; under setting [19], 100 % of control.

Regarding `O=C(Nc1ccccc1)OCc1c(COC(=O)Nc2ccccc2)c(-c2ccc(Cl)c(Cl)c2)n2c1CCC2`, the T/C by setting is: (dose: 12.5 mg/kg/injection, schedule: Q01DX005 (ip), vehicle: distilled water + Tween-80) 122 % of control; (dose: 100.0 mg/kg/injection, schedule: Q01DX005 (ip), vehicle: distilled water + Tween-80) 155 % of control; (dose: 200.0 mg/kg/injection, schedule: Q01DX005 (ip), vehicle: distilled water + Tween-80) 160 % of control.

For the molecule `S=C(S)n1nc(-c2ccccc2)c(N=Nc2cccc(Cl)c2Cl)c1-c1ccccc1`, the T/C is, setting by setting: under setting [15], 93 % of control; under setting [16], 93 % of control; (dose: 400.0 mg/kg/injection, schedule: Q04DX002 (ip), vehicle: saline with Tween-80) 109 % of control.

Turning to `O=S(=O)(O)C1CC2C(c3ccccc31)N1ON2O1` (stereo not given), the T/C under setting [10] was 102 % of control, the T/C under setting [11] was 100 % of control and the T/C under setting [12] is 100 % of control.

For `O=C(N/C(=C\c1ccccc1Cl)c1nc2ccccc2s1)c1ccccc1`, the T/C under setting [1] was 113 % of control, the T/C under setting [2] is 113 % of control and the T/C under setting [3] is 102 % of control.

On to `Cc1c(N2CCCC2)cc2c(c1NC(=O)c1ccccc1Cl)C(C)(C)CC2(C)C`, for which the T/C (dose: 50.0 mg/kg/injection, schedule: Q01DX009 (ip), vehicle: Klucel (hydroxypropylcellulose) (HPC)) is 99 % of control; the T/C (dose: 100.0 mg/kg/injection, schedule: Q01DX009 (ip), vehicle: Klucel (hydroxypropylcellulose) (HPC)) was 100 % of control; the T/C (dose: 200.0 mg/kg/injection, schedule: Q01DX009 (ip), vehicle: Klucel (hydroxypropylcellulose) (HPC)) was 99 % of control.

On to `COc1c(Br)c2c(c(OC)c1OC)-c1ccc(OC)c(=O)cc1C(NC(C)=O)CC2` (stereo not given), for which the T/C reads like this: (dose: 1.56 mg/kg/injection, schedule: Q01DX009 (ip), vehicle: Klucel (hydroxypropylcellulose) (HPC)) 165 % of control; (dose: 3.12 mg/kg/injection, schedule: Q01DX009 (ip), vehicle: Klucel (hydroxypropylcellulose) (HPC)) 101 % of control and 96 % of control.

For the molecule `CNc1cccc2c1C(=O)c1ccccc1C2=O`, the T/C is 93 % of control under setting [17]; 91 % of control under setting [18]; 97 % of control under setting [19]; 90 % of control (dose: 400.0 mg/kg/injection, schedule: Q04DX003 (ip), vehicle: saline with Tween-80).
